Results: PubChem BioAssay (NCI)
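96-well plates; 48 h exposure; 5 concentrations. Endpoints by linear interpolation between flanking doses. Not reached: highest tested concentration assigned. Abbreviation: GI50, concentration required for 50% inhibition of growth. Definition used: TGI = concentration required for complete inhibition of growth.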

Experiments:
Test in all cases: DTP human tumour cell line panel, 48 h
[1] = test system: A498 renal
[2] = test system: BT-549 breast
[3] = test system: HT29 colon
[4] = test system: MDA-MB-435
[5] = test system: OVCAR-4 ovarian
[6] = test system: RPMI-8226 leukemia
[7] = test system: SR leukemia
[8] = test system: UACC-62 melanoma
[9] = test system: SNB-19 CNS
[10] = test system: NCI-H226 lung

**Q.** For `Cc1c(C)c2c(c(C)c1OC(=O)CCC(=O)[O-])CCC(C)(CCCCCCCCCCC[P+](c1ccccc1)(c1ccccc1)c1ccccc1)O2` (stereo not drawn), which GI50 [1] is on record?
**A.** 0.0851 µM

**Q.** And the TGI [1]?
**A.** 0.41 µM

**Q.** What about the GI50 [2] of the same molecule?
**A.** 0.14 µM

**Q.** What about the TGI [2] of the same molecule?
**A.** 0.678 µM

**Q.** What about the GI50 [3] of the same molecule?
**A.** 0.166 µM

**Q.** What about the TGI [3] of the same molecule?
**A.** 2.07 µM

**Q.** And the GI50 [4]?
**A.** 0.179 µM

**Q.** What about the TGI [4] of the same molecule?
**A.** 0.67 µM

**Q.** What about the GI50 [5] of the same molecule?
**A.** 0.158 µM

**Q.** And the TGI [5]?
**A.** 0.891 µM

**Q.** What about the GI50 [6] of the same molecule?
**A.** 0.0151 µM

**Q.** What about the TGI [6] of the same molecule?
**A.** 0.148 µM

**Q.** What about the GI50 [7] of the same molecule?
**A.** 0.261 µM

**Q.** What about the TGI [7] of the same molecule?
**A.** 9.05 µM

**Q.** What about the GI50 [8] of the same molecule?
**A.** 0.177 µM

**Q.** And the TGI [8]?
**A.** 0.727 µM

**Q.** Which TGI [1] does the source give for `COc1ccc(CN(CCN(C)C)c2ccccn2)cc1` (tested in a mixture with another compound) here?
**A.** > 100 µM

**Q.** And the TGI [3]?
**A.** > 100 µM

**Q.** And the TGI [9]?
**A.** > 100 µM

**Q.** Which TGI [1] does the source give for `CC(=O)O[C@@H]1[C@H](OC2CCCCC2(c2ccccc2)c2ccccc2)O[N+]([O-])=CC12CCCCC2` (stereo partly drawn) here?
**A.** 29.9 µM

**Q.** And the TGI [3]?
**A.** 36.2 µM

**Q.** What about the TGI [4] of the same molecule?
**A.** 29.2 µM

**Q.** What about the TGI [10] of the same molecule?
**A.** 27.8 µM

**Q.** And the TGI [6]?
**A.** > 100 µM

**Q.** And the TGI [7]?
**A.** > 100 µM

**Q.** What about the TGI [8] of the same molecule?
**A.** 32.6 µM

**Q.** Which results are given for `C/C=C/CC(C(=O)OCC)(N(C)C(=O)OC(C)(C)C)S(=O)(=O)c1ccc(C)cc1` (stereo not drawn)?
**A.** TGI [1]: > 100 µM; TGI [2]: > 100 µM; TGI [3]: > 100 µM; TGI [4]: 83 µM; TGI [10]: > 100 µM; TGI [5]: > 100 µM; TGI [6]: > 100 µM; TGI [9]: > 100 µM; TGI [8]: > 100 µM

**Q.** `CN(C)c1ccc(/C=C/C(=O)c2cc(C(C)(C)C)c(O)c(C(C)(C)C)c2)cc1` was tested. Which TGI [1] did it give?
**A.** > 100 µM

**Q.** What about the TGI [2] of the same molecule?
**A.** > 100 µM

**Q.** And the TGI [3]?
**A.** > 30.2 µM

**Q.** What about the TGI [4] of the same molecule?
**A.** 1.87 µM

**Q.** And the TGI [10]?
**A.** > 65.9 µM

**Q.** And the TGI [5]?
**A.** > 100 µM

**Q.** What about the TGI [6] of the same molecule?
**A.** 8.63 µM

**Q.** What about the TGI [9] of the same molecule?
**A.** > 100 µM

**Q.** And the TGI [8]?
**A.** > 100 µM

**Q.** Which results are given for `COC1(OC)CC2C(=O)N(Cc3ccccc3)C1C(S(=O)(=O)c1ccccc1)C2C(C)S(=O)(=O)c1ccccc1` (stereo not drawn)?
**A.** TGI [3]: > 100 µM; TGI [5]: > 100 µM; TGI [6]: > 100 µM; TGI [9]: > 100 µM; TGI [7]: > 100 µM; TGI [8]: > 100 µM

**Q.** What does the source list for `CON(C)c1nc(N)c(C#N)c(C#N)c1C#N`?
**A.** TGI [1]: > 10 µM; TGI [3]: > 10 µM; TGI [4]: > 10 µM; TGI [10]: > 10 µM; TGI [5]: > 10 µM; TGI [6]: > 10 µM; TGI [9]: > 10 µM; TGI [7]: > 10 µM; TGI [8]: > 10 µM

**Q.** What does the source list for `c1ccc(CN2CCC(=NN3CCCCC3)CC2)cc1`?
**A.** TGI [2]: > 100 µM; TGI [3]: > 100 µM; TGI [4]: > 100 µM; TGI [10]: > 100 µM; TGI [5]: > 100 µM; TGI [6]: 66.3 µM; TGI [9]: > 100 µM; TGI [7]: > 100 µM; TGI [8]: > 100 µM

**Q.** With `CC(NC(=O)Cc1ccc(OP(=O)(OCc2ccc([N+](=O)[O-])o2)N(C)CCCCCl)cc1)c1ccc(OCC2CCCCC2)c(C(N)=O)c1` (stereo not drawn) as the molecule, how does the TGI [1] read?
**A.** 7.39 µM

**Q.** What about the TGI [3] of the same molecule?
**A.** 3.18 µM

**Q.** And the TGI [4]?
**A.** 3.95 µM

**Q.** And the TGI [10]?
**A.** 7.09 µM

**Q.** And the TGI [5]?
**A.** 6.31 µM

**Q.** And the TGI [6]?
**A.** 2.44 µM

**Q.** And the TGI [9]?
**A.** 22.1 µM

**Q.** What about the TGI [7] of the same molecule?
**A.** 4.38 µM

**Q.** And the TGI [8]?
**A.** 3.28 µM

**Q.** What does the source list for `O=Cc1c2c(cc3c1CC1(C3)Cc3cc4c(c(C=O)c3C1)CCCC4)CCCC2`?
**A.** TGI [3]: > 31.6 µM; TGI [4]: > 31.6 µM; TGI [10]: > 31.6 µM; TGI [5]: > 31.6 µM; TGI [6]: 30.3 µM; TGI [9]: > 100 µM; TGI [7]: 22.2 µM; TGI [8]: > 31.6 µM

**Q.** What does the source list for `CC1(CO)C(O)CCC2(C)C1CCC1CC3CC12CCC3(O)CO` (stereo not drawn)?
**A.** TGI [1]: 99 µM; TGI [3]: > 100 µM; TGI [10]: > 89.8 µM; TGI [5]: > 100 µM; TGI [6]: > 100 µM; TGI [9]: > 100 µM; TGI [8]: > 100 µM

**Q.** How did the TGI [3] turn out when `CC(=O)Nc1ccc(-c2nnc(SCC(=O)Nc3cccc(C)c3)o2)cc1` was run?
**A.** 25.4 µM

**Q.** What about the TGI [10] of the same molecule?
**A.** 30.8 µM

**Q.** What about the TGI [5] of the same molecule?
**A.** 29.8 µM

**Q.** What about the TGI [6] of the same molecule?
**A.** 67 µM

**Q.** And the TGI [7]?
**A.** > 100 µM

**Q.** What about the TGI [8] of the same molecule?
**A.** 20.9 µM
